Where two headings read alike, the source gives them in different places.
How the values were obtained:
[1] = Comparison of solubilities (saturated concentration by HPLC); assay type: physicochemical; details: for solubility thermodynamic at 16 h: thermodynamic from solid
Description: The thus-obtained ursolic acid phosphate was compared to ursolic acid (control) on their solubilities. The mixture was stirred for 16 hours and was passed through a 0.45-μm filter. After that, concentration measurement was performed by HPLC.

[2] = test system: Hartley white guinea pigs; assay: Guinea pig maximization test (skin sensitivity); assay type: in vivo; details: challenge 5%, 0.5%, Draize criteria
Description: A guinea pig maximization test was performed using ten Hartley white guinea pigs to examine the presence or absence of the skin sensitivity of ursolic acid phosphate to the guinea pigs. An emulsified product containing distilled water and Freund's complete adjuvant (FCA) in equal volumes, a test substance (dissolved in olive oil, 5%), and a mixture including a test substance and FCA in equal volumes were separately injected intracutaneously to five guinea pigs in two sites with 0.1 mL, respectively. The next day, the hair of the intracutaneous injection sites was shaved, and a mixture of 10% sodium lauryl sulfate/petrolatum was applied thereto. The day after that, 0.1 ml of 5% ursolic acid phosphate (dissolved in olive oil) was applied with a patch for 48 hours to the shaved sites to complete induction of sensitization. After completion of induction of sensitization, a 10-day rest period was provided. After completion of the period, the hair in back untreated sites was shaved. Then, each of 0.1 ml of 5%, 0.5%, and 0% ursolic acid phosphate (dissolved in olive oil) was applied with a patch for 24 hours to respective three sites to […]. Thirty minutes and 24 hours after patch removal, skin reactions were observed. […]

C[C@H]1[C@H](C)CC[C@]2(C(=O)O)CC[C@]3(C)C(=CC[C@@H]4[C@@]5(C)CCC(OP(=O)(O)O)C(C)(C)[C@@H]5CC[C@]43C)[C@H]12 (stereo partly shown) [ursolic acid phosphate, Ursolic acid phosphate]
solubility compared to that of ursolic acid [1]: improved | Saturated concentration ([1]; 16 h, pH 7): 31.1 µg/mL | Saturated concentration ([1]; 16 h, pH 9): 7.5 µg/mL | solubility thermodynamic at 16 h ([1]; pH 9, aqueous buffer): 120 µg/mL | solubility thermodynamic at 16 h ([1]; water): 20.1 µg/mL | skin reactions, sample-administered group versus control group ([2]; 0% in olive oil, patch 24 hours): no differences | sensitization to skin ([2]; induction with 5% in olive oil, 0% patch 24 hours, observed 30 minutes and 24 hours after patch removal): not observed

C[C@H]1[C@H](C)CC[C@]2(C(=O)O)CC[C@]3(C)C(=CC[C@@H]4[C@@]5(C)CC[C@H](O)C(C)(C)[C@@H]5CC[C@]43C)[C@H]12 [ursolic acid, reference compound]
Saturated concentration ([1]; Solvent 8% EtOH/0.1 M phosphate Buffer (pH7.0), stirred 16 hours, 0.45-μm filter, HPLC): <1 µg/mL | Saturated concentration ([1]; Solvent 8% EtOH/0.1 M phosphate Buffer (pH9), stirred 16 hours, 0.45-μm filter, HPLC): <1 µg/mL | Saturated concentration ([1]; Solvent 8% EtOH/DW, stirred 16 hours, 0.45-μm filter, HPLC): <1 µg/mL | Saturated concentration ([1]; Solvent EtOH, stirred 16 hours, 0.45-μm filter, HPLC): <1 µg/mL | solubility thermodynamic at 16 h ([1]; pH 9, aqueous buffer, Solvent 0.1 M phosphate Buffer (pH9), stirred 16 hours, 0.45-μm filter, HPLC, read-out: Saturated concentration): < 1 µg/mL | solubility thermodynamic at 16 h ([1]; water, Solvent DW, stirred 16 hours, 0.45-μm filter, HPLC, read-out: Saturated concentration): < 1 µg/mL

Reference: patent US7718635B2, “Triterpenic acid derivative and preparation for external application for skin comprising the same” (Pola Chemical Industries Inc., priority 2005, dated 2010)
